According to EP1038880B1, “Androstanes and pregnanes for allosteric modulation of GABA receptor” (priority 1994, dated 1995):

Key:
Rats = assay: Vogel test; assay type: in vivo; conditions: i.c.v., g-CD
Excerpt: The Vogel test is based on the development of a conflict between a highly motivated behavior and an aversion. For this test, the strong motivation is thirst. The animal is water deprived for 12-16 hrs to produce the motivation to drink. During the training period the animals are exposed to the testing environment so they become accustomed to the drinking spout and minimize the fear of a novel environment. Following training, the animals are allowed access to water for 2 hrs. During this time, the animals will drink and eat their normal amount of water and food, compensating for the deprivation time. However, this schedule still produces a strong motivation to drink during the testing period.
Having been deprived of water for twelve to sixteen hours, an animal is placed in a test cage where it is allowed to drink freely for five minutes. This period is used to habituate the animal to the environment and the drinking spout. Following the training period, animals have access to water and food in their home cage for 2 hrs. Food is available at all times. Twenty-four hours later, drug is administered to the animal intracecebroventricularly.
After an indicated delay started from the time of injection the animal is again placed in the test cage for ten minutes. A computer counts each time the animal licks, and after every twentieth lick administers a mild electric stimulus across the tongue and/or feet. The electrical stimulus consists of a 0.6 mA current with a duration of 100 msec. This procedure produces a state of conflict for the animal that is reduced by the administration of clinically used anxiolytic agents (i.e., Valium). For dose-response curves, separate groups of animals are injected with increasing doses of test drug and are tested at a predetermined time.
Table 10. Anxiolytic Activity in Vogel Test in Rats

Sprague-Dawley rats = assay: Geller-Seifter conflict test; assay type: in vivo
Excerpt: This animal model of human anxiety utilizes a conditioned state of conflict in rats to ascertain the anxiolytic properties of drugs. […] The first includes bar pressing under a variable […] schedule without punishment. The second component is a fixed ratio schedule with each bar press resulting in a positive reinforcement and a punishment. The punished component produces a state of conflict within the animal. […] An anxiolytic response would increase the punished responding without affecting the unpunished responding.
Rats were housed individually under a 12-hour light-dark cycle with lights on from 0700-1900.
Rats were trained in test chambers (Coulbourn instruments) with a lever mounted in one wall, a small dipper that delivered the 0.1-mL milk reward (1 part Eagle condensed : milk 2 parts water), and a metal grid floor through which the foot-shock punishment was administered. A DEC PDP 11/73 minicomputer nmning SKED (State Systems) was used for programming and recording.
Rates initially learned to respond on a continuous reinforcement schedule and progressed rapidly to 30-sec, 1-min, and 2-min variable interval (VI) schedules. On the continuous reinforcement schedule, rats received milk reward following every lever press; on the VI schedules, milk rewards were available at infrequent and variable intervals, eventually at an average of once every 2 min. […] During conflict periods, which were signalled by the presentation of a light and a tone, the continuous reinforcement schedule was again in force and each lever press delivered both a milk reward and a brief ([…]) foot-shock Shock intensity was 0.2 mA initially, and.was increased daily in increments of 0.02 mA in order to gradually suppress lever pressing to 5 responses or less per conflict period. […] Drug-induced increases in the rate of punished responses were taken as an index of antianxiety activity, while decreases in the rate of unpunished responses were taken as an index of response depression or sedation.

Glucocorticoid Receptors = molecular target: T1, Glucocorticoid Receptors (Rattus norvegicus, UniProt P06536); assay: Inhibition of 3H-dexamethasone binding, brain cytosol; set-up: species or system rats; dose or concentration left out as unconfirmed; conditions: read-out: % of Inhibition
T1 construct: from tissue; host or cells: rat brain cytosol
T1 sequence (P06536 1-795): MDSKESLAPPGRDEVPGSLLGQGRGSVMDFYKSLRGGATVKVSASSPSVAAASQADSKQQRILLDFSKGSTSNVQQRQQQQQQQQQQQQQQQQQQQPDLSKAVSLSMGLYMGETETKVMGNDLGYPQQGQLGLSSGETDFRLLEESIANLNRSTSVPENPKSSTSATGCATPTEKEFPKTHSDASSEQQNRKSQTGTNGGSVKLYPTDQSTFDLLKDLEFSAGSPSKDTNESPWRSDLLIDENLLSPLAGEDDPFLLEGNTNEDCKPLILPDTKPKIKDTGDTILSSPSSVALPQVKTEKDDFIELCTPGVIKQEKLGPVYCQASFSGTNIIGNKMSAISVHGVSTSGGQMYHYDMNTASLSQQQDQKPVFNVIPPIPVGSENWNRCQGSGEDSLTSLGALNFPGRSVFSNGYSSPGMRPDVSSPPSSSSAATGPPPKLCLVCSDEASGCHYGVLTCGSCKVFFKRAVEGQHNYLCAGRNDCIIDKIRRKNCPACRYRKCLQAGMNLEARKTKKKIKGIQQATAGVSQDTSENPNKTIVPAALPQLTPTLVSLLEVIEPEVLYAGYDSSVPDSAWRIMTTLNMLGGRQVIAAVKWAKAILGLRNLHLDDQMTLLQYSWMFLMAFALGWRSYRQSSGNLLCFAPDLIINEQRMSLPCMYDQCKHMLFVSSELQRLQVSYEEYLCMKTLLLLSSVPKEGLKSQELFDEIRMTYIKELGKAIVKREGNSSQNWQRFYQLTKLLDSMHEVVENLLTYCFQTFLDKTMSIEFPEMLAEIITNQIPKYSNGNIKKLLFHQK
Experimental: (§1) Various hormonal activities of representative neuroactive steroids were further studied through testing their potential estrogenic, mineralocorticoid and glucocorticoid activities. These activities were analyzed by monitoring the ability of the compounds to inhibit binding of the steroid hormones to their respective hormone receptors.
For Table 4, brain cytosol fractions were prepared as for Table 3, and the compounds were incubated with 3 nM of ^3H-dexamethasone (the specific ligand for the glucocorticoid receptor).

[1] = molecular target: T2, Hippocampal Mineralocorticoid Receptors (Rattus norvegicus, UniProt P22199); assay: Inhibition of 3H-aldosterone binding, brain cytosol; set-up: species or system rats; conditions: competitor 10^-6M; 3 nM 3H-aldosterone, RU28362 0.5 µM
T2 construct: To isolate the mineralocorticoid receptor, brain cytosol fractions were prepared; from tissue; host or cells: rat brain (hippocampal) cytosol
T2 sequence (P22199 1-981): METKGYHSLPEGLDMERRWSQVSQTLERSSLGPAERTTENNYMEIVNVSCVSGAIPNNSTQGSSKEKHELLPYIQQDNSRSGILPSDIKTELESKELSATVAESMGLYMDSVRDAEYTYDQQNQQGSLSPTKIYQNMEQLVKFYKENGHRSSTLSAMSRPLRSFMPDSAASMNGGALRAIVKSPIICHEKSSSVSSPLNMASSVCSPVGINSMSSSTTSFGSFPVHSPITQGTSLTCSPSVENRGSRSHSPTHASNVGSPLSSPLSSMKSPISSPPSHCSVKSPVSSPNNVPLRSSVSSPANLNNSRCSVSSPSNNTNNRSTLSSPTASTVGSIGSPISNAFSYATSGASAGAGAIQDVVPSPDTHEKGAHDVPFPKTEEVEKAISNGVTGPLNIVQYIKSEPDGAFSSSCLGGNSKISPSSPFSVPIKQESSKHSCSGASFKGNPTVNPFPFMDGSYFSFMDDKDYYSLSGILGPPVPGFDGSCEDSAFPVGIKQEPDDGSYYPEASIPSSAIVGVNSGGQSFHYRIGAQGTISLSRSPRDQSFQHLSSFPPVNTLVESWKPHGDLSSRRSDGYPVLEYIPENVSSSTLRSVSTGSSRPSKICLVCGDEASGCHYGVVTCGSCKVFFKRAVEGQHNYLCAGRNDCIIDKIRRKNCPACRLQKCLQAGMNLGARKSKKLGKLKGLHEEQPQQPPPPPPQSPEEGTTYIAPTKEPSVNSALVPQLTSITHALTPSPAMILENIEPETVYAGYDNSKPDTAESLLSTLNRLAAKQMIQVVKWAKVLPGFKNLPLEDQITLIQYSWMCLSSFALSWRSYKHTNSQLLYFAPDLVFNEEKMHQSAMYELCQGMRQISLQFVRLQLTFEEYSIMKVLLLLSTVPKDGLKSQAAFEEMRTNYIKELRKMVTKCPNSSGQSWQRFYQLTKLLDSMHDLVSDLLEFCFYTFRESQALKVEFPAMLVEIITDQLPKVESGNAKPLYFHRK
Experimental: as §1
In Table 3, rats were adrenalectomized 3 days prior to sacrifice. […] Table 2. Inhibition of 3H-Progesterone Binding to the Bovine Uteral Progesterone Receptors
Table 3. Inhibition of 3H-Aldosterone Binding to Hippocampal Mineralocorticoid Receptors

[2] = system: Bovine Uteral Progesterone Receptors; assay: Inhibition of 3H-progesterone binding, uterus cytosol; conditions: competitor 10^-6M; 3H-progesterone 0.15 nM
Experimental: The data presented were obtained by performing assays in accordance with the procedures described in et al. 1988 previously to determine the effect of progesterone metabolites and their derivatives and the progestin R5020 on the binding of [^3H]R5020 to the progesterone receptor in rat uterus (Gee et al. 1988).
^3H-progesterone (0.15 nM) was incubated with the rat uterus cytosol in the presence of the test compounds. The specific binding were determined after incubation and compared to the control incubation without the compounds. The data are expressed as percent inhibition of binding.
In Table 3, rats were adrenalectomized 3 days prior to sacrifice. To isolate the mineralocorticoid receptor, brain cytosol fractions were prepared as describe in Gee, et al. 1988. The drugs were incubated with 3 nM of ^3H-aldosterone (the specific ligand for the mineralocorticoid receptor) in the presence of the selective type II agonist RU28362 (0.5 µM) which blocks ^3H-aldosterone binding to the type II (glucocorticoid) receptors. Table 2. Inhibition of 3H-Progesterone Binding to the Bovine Uteral Progesterone Receptors

GR complex = assay: [35S]TBPS binding assay (inhibition of [35S]TBPS binding, cerebral cortex P2 homogenate); set-up: species or system rat
Method in brief: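 Rat (male Sprague-Dawley) cortical P2 homogenate (0.5 mg protein) in 50 mM Na/K phosphate pH 7.4, 200 mM NaCl, incubated with 2 nM [35S]TBPS plus steroid test compounds (DMSO) in presence of GABA plus (+)bicuculline, 25°C, 90 min. Filtration, scintillation counting; nonspecific binding defined with […].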

CC[C@H](O)[C@H]1CC[C@H]2[C@@H]3CC[C@H]4C[C@H](O)CC[C@]4(C)[C@H]3CC[C@]12C [3α,20α-Dihydroxy-21-methyl-5α-pregnane]
Vogel (%of control) (Rats; 10 µg/kg): 157.9 %of control

CCC[C@H](O)[C@H]1CC[C@H]2[C@@H]3CC[C@H]4C[C@H](O)CC[C@]4(C)[C@H]3CC[C@]12C [3α,20α-Dihydroxy-21-ethyl-5α-pregnane]
Vogel (%of control) (Rats; 20 µg/kg): 225.8 %of control

COC[C@@]1(O)CC[C@@]2(C)[C@@H](CC[C@@H]3[C@@H]2CC[C@]2(C)[C@@H](C(C)=O)CC[C@@H]32)C1 [3α-Hydroxy-3β-methoxymethyl-5α-pregnan-20-one]
Geller/ Seifter (% of control) (Sprague-Dawley rats; IP, 50% hpbcd, 10 mg/kg): 958 % of control

CC(C)OC1CC2(C)C(CCC3C2CCC2(C)C(C(C)O)CCC32)CC1O (stereo not drawn) [3α,20α-Dihydroxy-2β-isopropoxy-5α-pregnane]
Vogel (%of control) (Rats; 10 µg/kg): 169.0 %of control

C[C@H](O)[C@H]1CC[C@H]2[C@@H]3CC[C@H]4C[C@H](O)CC[C@]4(C)[C@H]3CC[C@]12C [3α,20α(S)-Dihydroxy-5α-pregnane]
Vogel (%of control) (Rats; 10 µg/kg): 193.0 %of control

C[C@]12CC[C@@H](O)C[C@H]1CC[C@@H]1[C@@H]2CC[C@]2(C)[C@@H](C(=O)CO)CC[C@@H]12 [5β-pregnan-3α,21-diol-20-one]
inhibition (Glucocorticoid Receptors): 8.2%
inhibition at 1 µM [1]: 13.8%
% of Inhibition [2]: 6%

CC(=O)C1CCC2C3CCC4CC(O)(C(F)(F)F)CCC4(C)C3C(N(C)C)CC12C (stereo not drawn) [11α-N,N-Dimethylamino-3α-hydroxy-3β-trifluoromethyl-5β pregnan-20-one]
Geller/ Seifter (% of control) (Sprague-Dawley rats; IP, citrate, 20 mg/kg): 145 % of control

CC(C)(O)[C@H]1CC[C@H]2[C@@H]3CC[C@H]4C[C@H](O)CC[C@]4(C)[C@H]3CC[C@]12C [5α-pregnan-20-dimethyl-3α,20-diol]
inhibition (Glucocorticoid Receptors): 2.6%
inhibition at 1 µM [1]: 0%
% of Inhibition [2]: 0%

CC(O)C1CCC2C3CCC4CC(O)C(F)CC4(C)C3CCC12C (stereo not drawn) [2β-Fluoro-3α,20α-dihydroxy-5α-pregnane]
Vogel (%of control) (Rats; 20 µg/kg): 264.9 %of control

COCC1(O)CCC2(C)C(CCC3C2CCC2(C)C(C(=O)CSS(=O)(=O)[O-])CCC32)C1.[Na+] (stereo not drawn) [sodium S-(3α-hydroxy-3β-methoxymethyl-5α-pregnan-20-on-21-yl) thiosulfate]
Geller/ Seifter (% of control) (Sprague-Dawley rats; PO, water, 32 mg/kg): 4487.5 % of control
IC50 (GR complex; 2 nM [35S]TBPS, rat cerebral cortex P2 homogenate): 132 nM
IMAX (GR complex; maximum inhibition of [35S]TBPS binding): 103%

CCOC[C@@]1(O)CC[C@@]2(C)[C@@H](CC[C@@H]3[C@@H]2CC[C@]2(C)[C@@H](C(C)=O)CC[C@@H]32)C1 [3α-hydroxy-3β-ethoxymethyl-5α-pregnan-20-one]
Geller/ Seifter (% of control) (Sprague-Dawley rats; IP, 50% hpbcd, 40 mg/kg): 3743 % of control

C[C@H](O)[C@H]1CC[C@H]2[C@@H]3CC[C@H]4C[C@H](O)CC[C@]4(C)[C@H]3CC[C@]12C [5α-pregnan-3α,20α-diol, reference compound]
inhibition at 1 µM [1]: 0%
Vogel (%of control) (Rats; 10 µg/kg): 283.3 %of control
Vogel (%of control) (Rats; 20 µg/kg): 267.3 %of control
modulation of [35S]TBPS binding, in words (GR complex; even at very high concentrations (Figure 6)): partially modulate
